Results: patent US20050197350A1, “Novel quinoline, tetrahydroquinazoline, and pyrimidine derivatives and methods of treatment related to the use thereof” (TAISHO PHARMACEUTICAL CO., LTD., priority 2003, published 2005)

tested on: MCH receptors; experiment: MCH receptor activity class (method not given); conditions: class by percent of control at 10^-7 M or IC50

Which class does the source give for COc1cc(CC(=O)N[C@H]2CC[C@@H](Nc3cc(N(C)C)c4ccccc4n3)CC2)ccc1OCc1ccccc1 [compound 736] here?
Its class is 3 (Class 3 The value of percent of control at 10^−7 M was more than 60% or the value of IC50 was more than 200 nM.).

How did the class turn out when C[C@@H](NC(=O)c1ccccc1C(=O)N[C@H]1CC[C@@H](Nc2cc(N(C)C)c3ccccc3n2)CC1)c1cccc2ccccc12 [compound 737] was run?
The class was 3 (Class 3 The value of percent of control at 10^−7 M was more than 60% or the value of IC50 was more than 200 nM.).

How did the class turn out when C[C@H](C(=O)N[C@H]1CC[C@@H](Nc2cc(N(C)C)c3ccccc3n2)CC1)c1cccc(C(=O)c2ccccc2)c1 [compound 738] was run?
Its class is 3 (Class 3 The value of percent of control at 10^−7 M was more than 60% or the value of IC50 was more than 200 nM.).

C[C@@H](c1ccccc1)N(C(=O)c1ccccc1C(=O)N[C@H]1CC[C@@H](Nc2cc(N(C)C)c3ccccc3n2)CC1)[C@@H](C)c1ccccc1 [compound 739] was tested. Which class did it give?
The class was 3 (Class 3 The value of percent of control at 10^−7 M was more than 60% or the value of IC50 was more than 200 nM.).

Which class does the source give for C[C@H](C(=O)N[C@H]1CC[C@@H](Nc2cc(N(C)C)c3ccccc3n2)CC1)c1ccc(-c2ccccc2)c(F)c1 [compound 740] here?
Its class is 3 (Class 3 The value of percent of control at 10^−7 M was more than 60% or the value of IC50 was more than 200 nM.).

CN(C)c1cc(N[C@H]2CC[C@@H](NC(=O)CCC(=O)c3cccs3)CC2)nc2ccccc12 [compound 745] was tested. Which class did it give?
Its class is 3 (Class 3 The value of percent of control at 10^−7 M was more than 60% or the value of IC50 was more than 200 nM.).

For CN(C)c1cc(N[C@H]2CC[C@@H](NC(=O)CCCc3cccs3)CC2)nc2ccccc12 [compound 746], which class is on record?
Its class is 3 (Class 3 The value of percent of control at 10^−7 M was more than 60% or the value of IC50 was more than 200 nM.).

Which class does the source give for CN(C)c1cc(N[C@H]2CC[C@@H](NC(=O)COc3c(Cl)cc(Cl)cc3Cl)CC2)nc2ccccc12 [compound 747] here?
Its class is 2 (Class 2: The value of percent of control at 10^−7 M was from 40% to 60% or the value of IC′50 was from 50 nM to 200 nM.).

With CN(C)c1cc(N[C@H]2CC[C@@H](NC(=O)Cc3c[nH]c4ccc(OCc5ccccc5)cc34)CC2)nc2ccccc12 [compound 748] as the compound, how does the class read?
The class was 3 (Class 3 The value of percent of control at 10^−7 M was more than 60% or the value of IC50 was more than 200 nM.).

For CN(C)c1cc(N[C@H]2CC[C@@H](NC(=O)c3ccccc3C(=O)c3cccc4ccccc34)CC2)nc2ccccc12 [compound 749], which class is on record?
Its class is 3 (Class 3 The value of percent of control at 10^−7 M was more than 60% or the value of IC50 was more than 200 nM.).

COc1ccc(C(=O)N[C@H]2CC[C@@H](Nc3cc(N(C)C)c4ccccc4n3)CC2)cc1OCc1ccccc1 [compound 750] was tested. Which class did it give?
Its class is 2 (Class 2: The value of percent of control at 10^−7 M was from 40% to 60% or the value of IC′50 was from 50 nM to 200 nM.).

For Cc1c(C(=O)N[C@H]2CC[C@@H](Nc3cc(N(C)C)c4ccccc4n3)CC2)cc(-c2ccccc2)n1-c1ccccc1 [compound 751], which class is on record?
Its class is 3 (Class 3 The value of percent of control at 10^−7 M was more than 60% or the value of IC50 was more than 200 nM.).

How did the class turn out when Cc1c(C(=O)N[C@H]2CC[C@@H](Nc3cc(N(C)C)c4ccccc4n3)CC2)cc(-c2ccccc2)n1CCSCc1c(F)cccc1Cl [compound 752] was run?
The class was 3 (Class 3 The value of percent of control at 10^−7 M was more than 60% or the value of IC50 was more than 200 nM.).

With CN(C)c1cc(N[C@H]2CC[C@@H](NC(=O)c3c4ccccc4cc4ccccc34)CC2)nc2ccccc12 [compound 753] as the compound, how does the class read?
The class was 3 (Class 3 The value of percent of control at 10^−7 M was more than 60% or the value of IC50 was more than 200 nM.).

Which class does the source give for CN(C)c1cc(N[C@H]2CC[C@@H](NC(=O)c3ccccc3Oc3ccccc3)CC2)nc2ccccc12 [compound 754, N-(cis-4-{[4-(dimethylamino)quinolin-2-yl]amino}cyclohexyl)-2-phenoxybenzamide] here?
The class was 2 (Class 2: The value of percent of control at 10^−7 M was from 40% to 60% or the value of IC′50 was from 50 nM to 200 nM.).

How did the class turn out when CN(C)c1cc(N[C@H]2CC[C@@H](NC(=O)c3ccccc3-c3ccccc3)CC2)nc2ccccc12 [compound 755] was run?
The class was 3 (Class 3 The value of percent of control at 10^−7 M was more than 60% or the value of IC50 was more than 200 nM.).

How did the class turn out when CN(C)c1cc(N[C@H]2CC[C@@H](NC(=O)CC(c3ccccc3)c3ccccc3)CC2)nc2ccccc12 [compound 756] was run?
Its class is 3 (Class 3 The value of percent of control at 10^−7 M was more than 60% or the value of IC50 was more than 200 nM.).

With CN(C)c1cc(N[C@H]2CC[C@@H](NC(=O)c3cc(-c4ccccc4)nc4ccccc34)CC2)nc2ccccc12 [compound 757, N-(cis-4-{[4-(dimethylamino)quinolin-2-yl]amino}cyclohexyl)-2-phenylquinoline-4-carboxamide] as the compound, how does the class read?
Its class is 2 (Class 2: The value of percent of control at 10^−7 M was from 40% to 60% or the value of IC′50 was from 50 nM to 200 nM.).

With C[C@H](NC(=O)c1ccccc1C(=O)N[C@H]1CC[C@@H](Nc2cc(N(C)C)c3ccccc3n2)CC1)c1ccccc1 [compound 758] as the compound, how does the class read?
The class was 3 (Class 3 The value of percent of control at 10^−7 M was more than 60% or the value of IC50 was more than 200 nM.).

With Cc1ccc(C(=O)c2ccccc2C(=O)N[C@H]2CC[C@@H](Nc3cc(N(C)C)c4ccccc4n3)CC2)cc1 [compound 759] as the compound, how does the class read?
The class was 3 (Class 3 The value of percent of control at 10^−7 M was more than 60% or the value of IC50 was more than 200 nM.).

How did the class turn out when CN(C)c1cc(N[C@H]2CC[C@@H](NC(=O)c3ccccc3COc3ccccc3)CC2)nc2ccccc12 [compound 760] was run?
The class was 3 (Class 3 The value of percent of control at 10^−7 M was more than 60% or the value of IC50 was more than 200 nM.).

How did the class turn out when CN(C)c1cc(N[C@H]2CC[C@@H](NC(=O)Cc3sc(-c4ccccc4)nc3-c3ccc(Cl)cc3)CC2)nc2ccccc12 [compound 761] was run?
The class was 3 (Class 3 The value of percent of control at 10^−7 M was more than 60% or the value of IC50 was more than 200 nM.).

With Cc1ccc(S(=O)(=O)n2ccc(C(=O)N[C@H]3CC[C@@H](Nc4cc(N(C)C)c5ccccc5n4)CC3)c2)cc1 [compound 762] as the compound, how does the class read?
Its class is 3 (Class 3 The value of percent of control at 10^−7 M was more than 60% or the value of IC50 was more than 200 nM.).

CN(C)c1cc(N[C@H]2CC[C@@H](NC(=O)c3ccc(-c4cccc([N+](=O)[O-])c4)o3)CC2)nc2ccccc12 [compound 763, N-(cis-4-{[4-(dimethylamino)quinolin-2-yl]amino}cyclohexyl)-5-(3-nitrophenyl)-2-furamide] was tested. Which class did it give?
The class was 1 (Class 1: The value of percent of control at 10^−7 M was less than 40% or the value of IC50 was less than 50 nM.).

CN(C)c1cc(N[C@H]2CC[C@@H](NC(=O)c3scc(S(C)(=O)=O)c3Cl)CC2)nc2ccccc12 [compound 764] was tested. Which class did it give?
Its class is 3 (Class 3 The value of percent of control at 10^−7 M was more than 60% or the value of IC50 was more than 200 nM.).

How did the class turn out when CSc1sc(C(=O)N[C@H]2CC[C@@H](Nc3cc(N(C)C)c4ccccc4n3)CC2)c(Cl)c1S(=O)(=O)C(C)C [compound 765] was run?
Its class is 3 (Class 3 The value of percent of control at 10^−7 M was more than 60% or the value of IC50 was more than 200 nM.).

For CSc1sc(C(=O)N[C@H]2CC[C@@H](Nc3cc(N(C)C)c4ccccc4n3)CC2)c(I)c1S(=O)(=O)C(C)C [compound 766], which class is on record?
Its class is 3 (Class 3 The value of percent of control at 10^−7 M was more than 60% or the value of IC50 was more than 200 nM.).

CN(C)c1cc(N[C@H]2CC[C@@H](NC(=O)c3csc([N+](=O)[O-])c3)CC2)nc2ccccc12 [compound 767, N-(cis-4-{[4-(dimethylamino)quinolin-2-yl]amino}cyclohexyl)-5-nitrothiophene-3-carboxamide] was tested. Which class did it give?
Its class is 1 (Class 1: The value of percent of control at 10^−7 M was less than 40% or the value of IC50 was less than 50 nM.).

CN(C)c1cc(N[C@H]2CC[C@@H](NC(=O)c3cc([N+](=O)[O-])cn3C)CC2)nc2ccccc12 [compound 768, N-(cis-4-{[4-(dimethylamino)quinolin-2-yl]amino}cyclohexyl)-1-methyl-4-nitro-1H-pyrrole-2-carboxamide] was tested. Which class did it give?
Its class is 1 (Class 1: The value of percent of control at 10^−7 M was less than 40% or the value of IC50 was less than 50 nM.).

Which class does the source give for CN(C)c1cc(N[C@H]2CC[C@@H](NC(=O)c3cn(S(=O)(=O)c4ccccc4)c4ccccc34)CC2)nc2ccccc12 [compound 769] here?
The class was 3 (Class 3 The value of percent of control at 10^−7 M was more than 60% or the value of IC50 was more than 200 nM.).

Which class does the source give for CN(C)c1cc(N[C@H]2CC[C@@H](NC(=O)c3ccc([N+](=O)[O-])cc3)CC2)nc2ccccc12 [compound 770, N-(cis-4-{[4-(dimethylamino)quinolin-2-yl]amino}cyclohexyl)-4-nitrobenzamide] here?
The class was 1 (Class 1: The value of percent of control at 10^−7 M was less than 40% or the value of IC50 was less than 50 nM.).

COc1cc([N+](=O)[O-])ccc1C(=O)N[C@H]1CC[C@@H](Nc2cc(N(C)C)c3ccccc3n2)CC1 [compound 771, N-(cis-4-{[4-(dimethylamino)quinolin-2-yl]amino}cyclohexyl)-2-methoxy-4-nitrobenzamide] was tested. Which class did it give?
The class was 2 (Class 2: The value of percent of control at 10^−7 M was from 40% to 60% or the value of IC′50 was from 50 nM to 200 nM.).

How did the class turn out when CN(C)c1cc(N[C@H]2CC[C@@H](NC(=O)c3ccc(C(F)(F)F)c(F)c3)CC2)nc2ccccc12 [compound 772, N-(cis-4-{[4-(dimethylamino)quinolin-2-yl]amino}cyclohexyl)-3-fluoro-4-(trifluoromethyl)benzamide] was run?
Its class is 1 (Class 1: The value of percent of control at 10^−7 M was less than 40% or the value of IC50 was less than 50 nM.).

Which class does the source give for CN(C)c1cc(N[C@H]2CC[C@@H](NC(=O)c3ccc([N+](=O)[O-])cc3F)CC2)nc2ccccc12 [compound 773] here?
Its class is 3 (Class 3 The value of percent of control at 10^−7 M was more than 60% or the value of IC50 was more than 200 nM.).

Cc1cc(C(=O)N[C@H]2CC[C@@H](Nc3cc(N(C)C)c4ccccc4n3)CC2)cc(C)c1[N+](=O)[O-] [compound 774, N-(cis-4-{[4-(dimethylamino)quinolin-2-yl]amino}cyclohexyl)-3,5-dimethyl-4-nitrobenzamide] was tested. Which class did it give?
The class was 2 (Class 2: The value of percent of control at 10^−7 M was from 40% to 60% or the value of IC′50 was from 50 nM to 200 nM.).
